Experiments:
[1] = test system: s.c. retinoblastomas (Y79 and RBT-7); experiment: VCN-01 genomes in s.c. xenografts (Y79 and RBT-7); assay type: in vivo, mouse
Method: To quantify genome copies of VCN-01 in cell cultures or mouse tissues, total DNA was extracted and real time quantitative polymerase chain reactions (RT-qPCR) was performed as described (Cascallo et al., “Systemic toxicity-efficacy profile of ICOVIR-5, a potent and selective oncolytic adenovirus based on the pRB pathway,” Mol Ther 2007; 15(9):1607-15).
Intratumoral infection of VCN-01. S.c. tumors were established in athymic nude mice. Upon xenograft engraftment, mice received one intratumoral injection of VCN-01, alone or combined with one cycle of topotecan, […], or hydroxyurea. At 5 and 15 days after VCN-01 inoculation, genome copies of VCN-01 were quantified in the tumors and immunostained for E1A and E2F-1.
To establish s.c. tumors, 10^6 retinoblastoma cells suspended in 25 µL matrigel (Corning, Glendale, AZ, USA) were injected in athymic nude mice. Upon xenograft engraftment (tumor volumes ranging 100-200 mm^3), treatments were started. Mice received VCN-01 (3×10^9 vp in 20 µL vehicle, single intratumoral injection at day 1), alone or combined with one cycle of topotecan (0.6 mg/kg, intraperitoneal -i.p.-, daily at days 1-5), […] (40 mg/kg, i.p, one single dose at day 1), or hydroxyurea (200 mg/kg, i.p., daily at days 1-5). […] In tumor homogenates, genome copies of VCN-01 were quantified. […]

retinoblastoma cells = assay type: cell-based; conditions: infection of retinoblastoma cells with VCN-01
Y79 cells = experiment: Cell cycle of retinoblastoma cells (propidium iodide cytometry); assay type: cell-based
Method: Then, the cells were collected and fixed in 70% ethanol for 2 h. The propidium iodide (PI)-based assay FxCycle™ PI/RNase (Thermo Fisher Scientific) was used as staining solution prior to quantification by flow cytometry (NovoCyte).

[2] = test system: HSJD-NB-005 neuroblastoma; experiment: Antitumor activity in neuroblastoma PDX HSJD-NB-005; assay type: in vivo, mouse; conditions: single treatment (FIG. 24D,F)
Method: PDX of neuroblastoma (pediatric solid tumor) were implanted subcutaneously into athymic nude mice. Tumor model was HSJD-NB-005. Upon engraftment (tumor volumes ranging 100-500 mm^3), treatments were started. The activity of topotecan vs. irinotecan in combination with VCN-01 was evaluated. The following groups of mice were included in the study, with an n of 6 tumors per group: • Group 1: no treatment • Group 2: topotecan i.p. at 0.6 mg/kg, Day 1-5 • Group 3: irinotecan i.p. at 10 mg/kg, Day 1-5 • Group 4: VCN-01 i.t at 3E9 vp/tumor, Day 1 • Group 5: VCN-01 i.t at 3E9 vp/tumor, Day 1 (morning)+topotecan i.p. at 0.6 mg/kg, Day 1-5 • Group 6: VCN-01 i.t at 3E9 vp/tumor, Day 1 (morning)+irinotecan i.p. at 10 mg/kg, Day 1-5
Antitumor activity in extracranial pediatric solid tumors. 5-10 mm^3 fresh fragments of Ewing sarcoma or neuroblastoma PDX were implanted in both flanks of mice. Upon s.c. engraftment (tumor volume 150-200 mm^3), mice received topotecan (0.6 mg/kg, i.p., days 1-5), VCN-01 (3×10^9 vp in 20 µL vehicle, intratumoral, day 1), or the combination. In two additional groups, an alternative topoisomerase 1 inhibitor, irinotecan (10 mg/kg, i.p., on days 1-5) we used in place of topotecan. Upon completion of treatments, tumor volumes were followed until endpoint (1500 mm^3), or until day 80.

[3] = Accumulation of topotecan in VCN-01-infected retinoblastoma; assay type: in vivo, mouse
From the text: Accumulation of topotecan in VCN-01-infected retinoblastoma. The Animal Experimental Ethics Committee at the University of Barcelona (animal protocol number 482/18) approved animal experimentation. Retinoblastoma cells in the eyes of athymic nude mice (Envigo, Barcelona, Spain), as previously described (Pascual-Pasto et al., 2016). After 14 days, VCN-01 (3×10^9 vp/eye) was inoculated. After another 14 days, s.c. osmotic pumps loaded with topotecan were implanted to achieve constant topotecan in plasma, as described previously (Pascual-Pasto et al., “Increased delivery of chemotherapy to the vitreous by inhibition of the blood-retinal barrier,” J Control Release 2017; 264:34-44), and collected tumor samples for analysis of topotecan.
Animal experiments were carried out following institutional and European guidelines (EU Directive 2010/63/EU) and the ARRIVE guidelines ([…]). Retinoblastoma cells (2×10^5) were inoculated into the posterior segment of the eye of six week old athymic nude mice using a dull 33G needle, as previously described (Giani et al., 1994). […] Samples were analyzed by high performance liquid chromatography (HLPC) as described previously ([…]).

CC[C@@]1(O)C(=O)OCc2c1cc1n(c2=O)Cc2cc3c(CN(C)C)c(O)ccc3nc2-1 [Topotecan, topotecan]
counts of viral genomes, 5 days ([1]; 5 days after intratumoral VCN-01 (FIG. 18G)): higher counts of viral genomes
counts of viral genomes, 15 days ([1]; 15 days after intratumoral VCN-01 (FIG. 19B)): Different counts of viral genomes were not observed
cell sensitivity to drug after VCN-01 infection (retinoblastoma cells): decreased cell sensitivity
percentage of cells in S-phase (Y79 cells; 24 h (FIG. 17A)): increased the percentage of cells in S-phase
duration of S-phase effect (Y79 cells; topotecan 2 μM (FIG. 17B,C)): at least 48 h
response of xenograft to single treatment [2]: highly resistant
biodistribution of topotecan in intraocular tumors ([3]; concomitant treatment with VCN-01 (FIG. 21)): did not change
concentration at 6 h ([3]; mouse, in vivo, sc, 25 ug/h, osmotic pump, 25 μg/h, athymic nude mice, read-out: topotecan plasma level at steady state): ~100 ng/mL
